system: T1, GCaMP5-expressing T. gondii; design: species or system GCaMP5-expressing Toxoplasma gondii, extracellular; GCaMP5 fluorescence (cytosolic Ca2+) after 100 uM zaprinast in compound-pretreated extracellular parasites, background-subtracted, relative to zaprinast alone; settings: 100 uM zaprinast stimulation; 10 min pretreatment; mean of two replicates; 0.23 h
T1 construct: whole extracellular parasites expressing GCaMP5 Ca2+ sensor
Experimental: GCaMP5-expressing parasites were suspended in Ringer's solution at 4 × 10^7 parasites/ml, and 50 μl of parasites were applied to each well of a 96-well plate (Costar, catalog no. 3631). […] Parasites were then treated with 100 μM zaprinast or 0.1% DMSO as a vehicle control and incubated at 37 °C with 5% CO2 for an additional 4 min before measuring fluorescence with excitation and emission wavelengths of 485 and 525 nm, respectively, on a SpectraMax M3 (Molecular Devices). Basal fluorescence, measured from untreated parasites, was subtracted from all values, and results were expressed as -fold change from parasites treated only with zaprinast. Z′ factors were determined from (i) parasites treated with zaprinast versus untreated parasites and (ii) parasites treated with a final concentration of 1 μM Cpd2 or a vehicle control followed by zaprinast, using the formula, Z′ = 1 − 3(σp + σn)/(|μp − μn|), where σp and σn indicate S.D. values of positive and negative controls, and μp and μn indicate the means of positive and negative controls, respectively. […] We predicted that the zaprinast response measured in GCaMP5-expressing parasites could form the basis for a phenotypic screen. Such a screen would benefit from the known importance of Ca^2+ signaling in parasite biology along with the reported success rate of cell-based phenotypic assays. We designed a screen wherein extracellular GCaMP5-expressing parasites were pretreated with compounds for 10 min before stimulation with zaprinast, and parasite fluorescence was measured 4 min later. We expected that compounds that interfered with the zaprinast response would reduce fluorescence. We calculated a Z′-factor for this screen to determine its dynamic range and suitability to high throughput screening. To do so, we compared zaprinast-treated parasites to untreated parasites or those pretreated with the PKG inhibitor Compound 2 (Cpd2) ([55]). […] We obtained the compound libraries published kinase inhibitor sets PKIS1 ([57]) and PKIS2 (unpublished), from GlaxoSmithKline and applied our phenotypic screen to the 823 ATP mimetics represented in these collections (Fig. 2B and supplemental Table S1). The compounds were screened at a single 10 μM dose with two biological replicates.

Row | Structure (SMILES) | fold change in fluorescence relative to zaprinast alone
1 | NC(=O)c1cc(-c2ccccc2)cc2c(C3CCNCC3)c[nH]c12 [GSK301362A] | 1.06
2 | Nc1ncnc2c1nc(-c1ccccc1)n2-c1ccccc1 [SKF-97293] | 1.205
3 | COC(=O)c1cncc(/C=C/c2c(C)cc(O)cc2C)c1 [GW406731X] | 0.8759
4 | COc1cc2nccc(Nc3ccc(Oc4ccccc4)cc3)c2cc1OC [GI261656A] | 0.5416
5 | CC(C)c1nc(-c2cccc(NS(=O)(=O)c3c(F)cccc3F)c2)c(-c2ccnc(Nc3ccc(N4CCOCC4)nc3)n2)s1 [GSK1723980B] | 0.6316
6 | NS(=O)(=O)c1ccc(-c2ccc3c(NC(=O)C4CC4)n[nH]c3c2)cc1 [SB-738482] | 1.098
7 | COc1ccc(Nc2nccc(N3CCC(NC(=O)C(C)c4ccc(Cl)cc4)CC3)n2)cc1 (stereo not shown) [GSK1379812A] | 1.185
8 | COC(=O)Nc1nc2ccc(Oc3ccc(NC(=O)Nc4cc(F)ccc4F)cc3)cc2[nH]1 [GW701424A] | 1.084
9 | COc1ccc(-c2ccc3c(NC(=O)C4CC4)n[nH]c3n2)cc1 [SB-711237] | 1.177
10 | Nc1ncnc2scc(-c3ccc(NC(=O)Cc4cc(F)ccc4F)cc3)c12 [SB-731254-M] | 1.242
11 | C[C@@H]1CC[C@@H](C(=O)Nc2ccccc2)CN1c1cc(-c2ccc3c(N)n[nH]c3c2)nc(N)n1 [GSK2286062A] | 0.9223
12 | [O-][S+]1CCN(Cc2ccc(-c3ccc4ncnc(Nc5ccc(OCc6ccccc6)c(Cl)c5)c4c3)o2)CC1 [GW583373A] | 0.2727
13 | Cc1ccc(C)c(NC(=O)NC2CCN(c3ccnc(Nc4ccc(F)cc4)n3)C2)c1 (stereo not shown) [GSK1379720A] | 1.268
14 | CCOc1nccc(-c2c(-c3ccc(F)cc3)ncn2C2CCNCC2)n1 [SB-249175] | 0.6135
15 | CN1CCN(CCCNc2nccc(-c3c(-c4ccc(F)cc4)nn4cc(C(N)=O)ccc34)n2)CC1 [GW622475X] | 0.5684
16 | Cc1nnc(-c2ccc(C)c(-c3ccc(C(=O)O)cc3)c2)o1 [GW608005X] | 1.249
17 | Fc1cc(Cl)ccc1Nc1ccnc2cc(-c3ccc(CN4CCOCC4)o3)ccc12 [GW560109X] | 0.545
18 | CCN(CC)CCOc1ccc(Nc2ncc3cc(-c4c(Cl)cccc4Cl)c(=O)n(C)c3n2)cc1 [SB-601273] | 0.7002
19 | CCn1cnc2c(NCc3ccccc3)ncnc21 [SKF-96418] | 0.8238
20 | Cc1ccc(C(=O)Nc2ccc(Nc3ccnc4cc(-c5ccccn5)ccc34)cc2O)cc1 [GW440146A] | 2.166
21 | COc1cccc(COc2cc(-n3cnc4ccccc43)sc2C(N)=O)c1 [GW804482X] | 1.105

Row | Structure (SMILES) | fold change in fluorescence relative to zaprinast alone
22 | COC(=O)c1cccc(NC(=O)NCCNc2ccnc(Nc3ccc(F)cc3)n2)c1 [GSK1379883A] | 0.8839
23 | Clc1ccc(CNc2nccc(-c3cnn4ncccc34)n2)cc1 [GW781673X] | 0.7156
24 | CCn1c(-c2nonc2N)nc2c(C#CC(C)(C)O)nc(OCCNC)cc21 [GSK949675A] | 1.152
25 | COc1cccc(/C=N/Nc2ncnc3c2cnn3-c2cccc(OC)c2)c1 [GW829874X] | 1.214
26 | O=C(NCC1CC1)c1ccc(-c2cc(C(=O)NC3CC3)ccc2F)cc1 [GW810445X] | 1.232
27 | CCn1c(-c2nonc2N)nc2cncc(C(=O)N3CCNCC3)c21 [SB-759335-B] | 1.333
28 | COc1ccc(Nc2nccc(N3CCC(NC(=O)Nc4cccc(C(C)=O)c4)C3)n2)cc1 (stereo not shown) [GSK1379731A] | 0.6491
29 | CN1CCC(n2cnc(-c3ccc(F)cc3)c2-c2ccnc(NC3CCNCC3)n2)CC1 [SB-229482] | 0.6668
30 | O=C1NC(=O)C(c2ccccc2Cl)=C1Nc1cccc(Cl)c1 [SB-342409] | 0.95
31 | FC(F)(F)c1ccc(-c2cc(-c3cn[nH]c3-c3ccccn3)ccn2)cc1 [GW599550X] | 1.459
32 | NC(=O)c1ccc2c(-c3ccnc(NCCCO)n3)c(-c3ccc(F)cc3)nn2c1 [GW581744X] | 0.8342
33 | CCCC(=O)Nc1[nH]nc2ncc(-c3cccc4ccccc34)cc12 [SB-642057] | 0.9221
34 | CN(c1ccc(NC(=O)N2CCN(CCCN3CCOCC3)CC2)cc1)c1ccnc(Nc2ccc(CS(C)(=O)=O)cc2)n1 [GW830899A] | 1.092
35 | Fc1ccc(-c2ncn(C3CCNCC3)c2-c2ccnc(Oc3ccc(-c4ccccc4)cc3)n2)cc1 [SB-245391] | 1.215
36 | FC(F)(F)c1cc(Br)cc(Nc2nccc(-c3cnn4ncccc34)n2)c1 [GW810578X] | 0.9472
37 | CN1CCN(CCCNc2nccc(-c3c(-c4ccc(F)cc4)nn4cc(C(F)(F)F)ccc34)n2)CC1 [GW621581X] | 0.8628
38 | COc1cccc(-n2ncc3c(N/N=C/c4ccc(C(=O)NCCN(C)C)cc4)ncnc32)c1 [GW784307A] | 0.4737
39 | Cc1ccc(F)c(C(=O)Nc2cccc(-c3nn4ccccc4c3-c3ccnc(Nc4cccc(F)c4)n3)c2)c1F [GSK361061A] | 0.9289
40 | CC(=O)Nc1[nH]nc2ncc(-c3ccccc3)cc12 [SB-548492] | 1.137
41 | CCn1c(-c2ccoc2)nc2cnccc21 [SB-733887] | 1.127
42 | CCS(=O)(=O)c1ccc(OC)c(Nc2nccc(-c3c(-c4cccc(NC(=O)c5c(F)cccc5F)c4)nn4ncccc34)n2)c1 [GSK326180A] | 1.656

Row | Structure (SMILES) | fold change in fluorescence relative to zaprinast alone
43 | CN(C)CCOc1ccc(-c2cc(-c3cn[nH]c3-c3ccccn3)ccn2)cc1 [GW835314X] | 0.7262
44 | Fc1ccc(-c2ncn(C3CCNCC3)c2-c2ccnc(Oc3ccc(F)c(F)c3)n2)cc1 [SB-253228] | 1.173
45 | CNC(=O)c1cncc(/C=C/c2c(Cl)cccc2Cl)c1 [GW445014X] | 1.122
46 | NC(=O)c1cccc(Nc2nccc(Nc3ccc(Oc4c(Cl)cccc4Cl)c(Cl)c3)n2)c1 [GW659009A] | 1.248
47 | COc1cc2ncnc(Nc3ccc4nc(-c5ccccc5)[nH]c4c3)c2cc1OC [GW282450A] | 0.9024
48 | COc1ccc2ncnc(Nc3ccc(OCc4ccccc4)cc3)c2c1 [GI261520A] | 0.7394
49 | COc1ccc(C[C@@H](CN)NC(=O)c2cc(Br)c(-c3ccnc4[nH]ccc34)s2)cc1 [GSK1389063A] | 0.8633
50 | NCCNS(=O)(=O)c1ccc(-c2ccnc3[nH]ccc23)cc1 [GSK977617A] | 1.223
51 | CCn1c(-c2c(N)noc2C)nc2cnccc21 [SB-737856] | 0.9935
52 | Nc1nc(-c2ccc3c(N)n[nH]c3c2)cc(N2CCCCC2)n1 [GSK2228768A] | 0.9677
53 | CCn1c(-c2nonc2N)nc2c(C#CC(C)(C)O)nc(CN3CCCC3)cc21 [GSK1000163A] | 1.153
54 | CCn1c(-c2ccccn2)nc2cnccc21 [SB-736398] | 1.076
55 | c1ccc(-c2ccnc3[nH]ccc23)cc1 [SB-693578] | 1.319
56 | COc1ccccc1C1=C(Nc2cccc(O)c2)C(=O)NC1=O [SB-381891] | 0.9532
57 | FC(F)(F)c1ccc(/C=C/c2cncnc2Nc2ccc3nc(Cc4ccccc4)[nH]c3c2)cc1 [GW709199X] | 1.132
58 | c1ccc(-c2ccc3c(-c4ccnc(Nc5ccc6c(c5)OCCO6)n4)cnn3n2)cc1 [GW818941X] | 0.7769
59 | FC(F)(F)c1cccc(Nc2nccc(-c3cnn4nc(-c5ccccc5)ccc34)n2)c1 [GW819077X] | 0.1467
60 | Nc1cccc(-c2ccc3c(N)n[nH]c3c2)n1 [GSK2192730A] | 1.059
61 | O=C(Nc1n[nH]c2nc(-c3ccccc3)ccc12)C1CC1 [SB-708999] | 1.075

Reference: PMC4850295, “Using a Genetically Encoded Sensor to Identify Inhibitors of Toxoplasma gondii Ca^2+ Signaling” (The Journal of Biological Chemistry, 2016)
